Experimental data: patent publication US9422254B2, “Methoxyacrylate-based fungicide and methods for preparing and using the same” (priority 2008, dated 2016)

Tests used:
[1] = tested on: Alternaria alternata; assay: microbe, parasite or virus in culture; format: cell-based; conditions: read-out: Inhibition rate (%)
[2] = tested on: Pepper phytophthora blight (strain NSGP); assay: In vivo micro-screening assay; design: species or system Phytophthora capsici; conditions: root-irrigation
From the text: (§1) 3. In Vivo Micro-Screening Assay

[3] = tested on: Cucumber brown spot (strain SDHGHB060509); assay: In vivo micro-screening assay
From the text: as §1

CO/C=C(/C(=O)OC)c1ccccc1CSc1nc2cc(OC)ccc2s1 [Compound of Formula (I), (E)-methyl 3-methoxy-2-(2-((5-methoxy-benzothiazol-2-ylthio)methyl)phenyl)acrylate]
inhibition at 0.3 µg/mL ([1]; 0.3 mg/L): 37.2%
inhibition at 3 µg/mL ([1]; 3 mg/L): 41.8%
inhibition at 30 µg/mL ([1]; 30 mg/L): 43.1%
Efficacy (%) ([2]; 100 mg/L): 26.22%
Spot area (mm^2) ([2]; 100 mg/L): 25.33 mm^2
Efficacy (%) ([2]; 500 mg/L): 30.09%
Spot area (mm^2) ([2]; 500 mg/L): 24 mm^2
prevention and treatment effect [3]: good prevention and treatment effect
Disease index ([3]; 100 mg/L): 6.11
Efficacy (%) ([3]; 100 mg/L): 85.00%
Disease index ([3]; 500 mg/L): 4.44
Efficacy (%) ([3]; 500 mg/L): 89.10%
